# Assays:
# U87 spheres = conditions: read-out: EC50 (median dose); GBM cell viability
# Description: FIG. 15A illustrates the results of the cell titer glo assay that utilizes ATP levels and was used to determine GBM viability in the presence of component biomaterials. FIGS. 15B and 15C are low-power images of bright fields of spheres cultured for one week in the presence of the indicated chemicals and concentrations. The insets are higher power (20×) magnification of the 5× images.
# GBM PDOs = assay: 72-hour drug treatment of GBM patient derived organoids (PDOs) in basket arrays; assay type: cell-based; conditions: 72-hour treatment
# Description: The basket arrays were used to deploy rapid single cell derived sphere and organoid assays to assess tumor cell viability, tumor invasion, terminal differentiation and resistance to therapy for cancer drug discovery and drug validation. […] PDOs were treated for 72-hours with standard chemotherapy (TMZ) and/or molecularly targeted agents, targeting mTOR, PI3K, BMI1, EGFR, and DDR, among others. Following treatments, the entire 4D printed basket arrays were evolved, with a 10-min heating step at 50° C., to their programmable cassette size to directly perform histological and IHC validation on the same day, and with the convenience of maintaining the same tissue plate arrangement. The concentrations inhibiting viability by 50% (GI50), real time activated caspase 3 for detection of apoptotic cells and GBM tumor cell invasion in live intact organoid cells were less impacted by standard TMZ than targeted therapies.
# [1] = live intact organoid cells, TMZ compared with targeted therapies
Molecule,EC50 (U87 spheres) [µM],EGFR expression in organoid cells (GBM PDOs),GBM tumor cell invasion (GBM PDOs; [1]),concentrations inhibiting viability by 50% (GI50) (GBM PDOs; [1]),real time activated caspase 3 for detection of apoptotic cells (GBM PDOs; [1])
poly (Ethylene glycol) diacrylate 250 [PEGDA250],7.2,,,,
Cn1nnc2c(C(N)=O)ncn2c1=O [TMZ],,not affected,less impacted,less impacted,less impacted
